Experimental findings from US5942532A, “2-substituted phenyl-benzimidazole antibacterial agents” (Ortho Pharmaceutical Corporation, priority 1997, dated 1999) are described below.

The structures appear in SMILES notation.

One assay has as its target T1, Kinase A and Spo0F (Bacillus subtilis, UniProt P16497).
T1 construct: made in house; host or cells: recombinant E. coli
T1 sequence (P16497 1-606): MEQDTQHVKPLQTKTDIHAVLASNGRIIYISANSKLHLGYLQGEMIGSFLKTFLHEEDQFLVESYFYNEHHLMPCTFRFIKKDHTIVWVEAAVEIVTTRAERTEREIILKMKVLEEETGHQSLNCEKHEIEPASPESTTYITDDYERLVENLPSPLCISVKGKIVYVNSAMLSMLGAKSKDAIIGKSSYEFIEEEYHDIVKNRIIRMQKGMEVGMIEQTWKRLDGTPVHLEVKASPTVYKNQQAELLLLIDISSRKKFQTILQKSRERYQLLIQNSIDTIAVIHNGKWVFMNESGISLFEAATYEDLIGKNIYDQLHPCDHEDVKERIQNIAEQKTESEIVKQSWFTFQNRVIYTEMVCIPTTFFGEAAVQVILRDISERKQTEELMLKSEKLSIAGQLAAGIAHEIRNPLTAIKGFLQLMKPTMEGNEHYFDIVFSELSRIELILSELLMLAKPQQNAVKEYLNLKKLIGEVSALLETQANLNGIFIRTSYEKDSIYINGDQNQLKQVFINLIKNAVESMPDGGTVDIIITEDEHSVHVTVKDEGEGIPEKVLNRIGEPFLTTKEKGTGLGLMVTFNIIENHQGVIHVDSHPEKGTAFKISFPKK
Description: Autophosphorylation of Kinase A and Transphosphorylation of Spo0F Assay (HPK in vitro assay). The format is biochemical. Conditions: Table 1, KinA/Spo0F phosphorylation, in µM. On the procedure: Autophosphorylation of Kinase A and Transphosphorylation of Spo0F Assay
To study the effect of the compounds of the present invention on the signal transduction process in bacteria, the inhibiting effect of the compounds on the sporulation operon proteins Kinase A and Spo0F was examined. Specifically, the inhibition of autophosphorylation of Kinase A and the transphosphorylation of Spo0F was determined in the following assays. The Spo0F response regulator is the primary substrate for phosphorylation by the protein kinase, Kin A, involved in the sporulation process in bacteria. See D. Burbulys, K. A. Trach, J. A. Hoch, Cell, 64, 545-552 (1991). Spo0F and KinA were prepared from recombinant E. coli overexpressing the proteins (J. Cavanagh et al, Amino Acids, 6, 131-140 (1994) and references therein).
The following stock reagents were either prepared and used promptly or stored at the indicated temperature:
8×Salts: 2 M KCl (5 mL), 1 M MgCl2 (800 mL), 1 M CaCl2 (100 mL), 10 mg/mL phenylmethylsulfonyl fluoride (200 mL), 1 M dithioreitol (50 mL), 0.25 M Na2 EDTA (32 mL) and H2 O 3.82 mL (-20° C.)
5×Loading Dye: 0.5M TRIS-HCl, pH 6.8 (7.5 mL), 10% SDS (2 mL) 0.1% bromophenol blue (0.5 mL), 100% glycerol (3 mL) and 12.5 M 2-mercaptoethanol (0.3 mL)
1-1.3 mg/mL KinA: 15 mM TRIS-HCl, pH 8.0, 6 mM KCl; 4 mM 2-mercaptoethanol;40% glycerol (-20° C.)
1 mg/mL Spo0F: 17.5 mM TRIS-HCl, pH 8.0; 0.7 mM KCl; 0.7 mM MgCl2; 0.7 mM CaCl2; 5 mM 2-mercaptoethanol; 30% glycerol (-20° C.)
5% Stacking Gel: 40% 29:1 acrylamide:bis acrylamide (1.25 mL), 0.5 M TRIS-HCl, pH 6.8 (2.5 mL), 10% SDS (0.1 mL), D-H2 O (6.15 mL) 10% ammonium persulfate (100 mL) and TEMED (25 mL)
SDS Running Buffer: TRIS-BASE (3.02 g), glycine (14.4 g), SDS (1 g), D-H2 O (to 1 L)
The reaction mixture was prepared from 8×Salts (87 μL), 1M TRIS, pH 8 (118 μL), 50% glycerol (63 μL), Spo0F (14.1 μL) and KinA (7.0 μL). Microcentrifuge tubes were charged with the reaction mixture (18.5 μL) and a 1.0 mM solution of the test compound in 5% DMSO (18.5 μL), and incubated for 15 min on ice. 100 mM ATP solution (3.0 μl, containing 625 μCi [^32 P]ATP) was added, and the mixture left for 10 minutes at room temperature. The reaction was quenched with 5× loading dye (10 μL per tube) and the samples were loaded on a prepared 5% Stacking Gel, or stored on dry ice until ready for use. The prepared wells were filled with SDS Running Buffer, samples were loaded into the wells, and 80 volts were applied to the gel until the dye front reached the bottom of the stacking gel. The voltage was then increased to 250 volts until electrophoresis was complete. Radioactive bands in the gel corresponding to phosphorylated KinA and Spo0F were imaged and quantitated with a phosphoimager.
If either enzyme was inhibited (as evidenced by the absence of labelled protein in the developed gel), an IC50 was calculated by running the assay with a range of inhibitor concentrations from 1 to 500 μM. After electrophoresis of the reaction mixtures, percent inhibition was determined by measuring the concentration of radioactive phosphorus with a phosphoimager and calculating the values using a software program (BioRad Molecular Analyst).
Compound `N=C(N)c1ccc2nc(-c3ccc(N(c4ccccc4)c4ccccc4)cc3)[nH]c2c1` [Example 5] showed an IC50 of 17.4. On the same count and under the same terms, for `COc1cc(OC)c(-c2nc3ccc(C(=N)N)cc3[nH]2)cc1Br` [Example 28] the value was 66; for `N=C(N)c1ccc2nc(-c3cc(I)c(O)c(I)c3)[nH]c2c1` [Example 18], 254. The same measure, in the same setting: the figure for `N=C(N)c1ccc2nc(-c3cc(Cl)cc(Cl)c3O)[nH]c2c1` [Example 36] is 155. In turn, `N=C(N)c1ccc2nc(-c3cc(-c4ccccc4)cc(-c4ccccc4)c3)[nH]c2c1` [Example 21] had an IC50 of 31. `CC(C)(C)c1ccc(-c2nc3ccc(C(=N)N)cc3[nH]2)cc1` [Example 10] showed an IC50 of 70.6. The same measure, in the same setting: the figure for `N=C(N)c1ccc2nc(-c3cc(-c4ccccc4)cc(-c4ccccc4)c3O)[nH]c2c1` [Example 39] is 23; for `CC(C)(C)c1cc(-c2nc3ccc(C(=N)N)cc3[nH]2)cc(C(C)(C)C)c1O` [Example 9] it is 75.9. On the same count and under the same terms, the figure for `CC(C)(C)c1cccc(-c2nc3ccc(C(=N)N)cc3[nH]2)c1O` [Example 34] is 4; for `N=C(N)c1ccc2nc(-c3ccc(-c4ccccc4)cc3)[nH]c2c1` [Example 2] it is 86; for `N=C(N)c1ccc2nc(-c3ccc(N(Cc4ccccc4)Cc4ccccc4)cc3)[nH]c2c1` [Example 26] it is 17. Same read-out and setting: the figure for `CC(C)(C)c1cc(-c2nc3ccc(C(=N)N)cc3[nH]2)cc(C(C)(C)C)c1` [Example 20] is 19; for `N=C(N)c1ccc2nc(-c3ccc(OCc4ccccc4)c(OCc4ccccc4)c3)[nH]c2c1` [Example 16] it is 50.7; for `N=C(N)c1ccc2nc(-c3ccc(C=Cc4ccccc4)cc3)[nH]c2c1` [Example 13] it is 21.5. Compound `N=C(N)c1ccc2nc(-c3cc(I)cc(I)c3O)[nH]c2c1` [Example 31] had an IC50 of 30.8.

Staying with this assay, now noted: Table 1, KinA/Spo0F phosphorylation, read-out: IC50.
Turning to `CC(C)(C)c1ccc(O)c(-c2nc3ccc(C(=N)N)cc3[nH]2)c1` [Example 35], the IC50 is 64 µM. On the same count and under the same terms, the figure for `N=C(N)c1ccc2nc(-c3ccccc3O)[nH]c2c1` [Example 27] is 465 µM; for `COc1c(-c2nc3ccc(C(=N)N)cc3[nH]2)cc(C(C)(C)C)cc1C(C)(C)C` [Example 29] it is 76 µM.

The assay is the same for the next values; noted with them: Table 2, KinA/Spo0F phosphorylation, in µM.
The compound `N=C(N)c1ccc2[nH]c(-c3ccc(Oc4ccc(Cl)c(Cl)c4)cc3)nc2c1` [Example 60] had an IC50 of 11.4.

Compound `N=C(N)c1ccc(Oc2ccc(-c3nc4ccc(C(=N)N)cc4[nH]3)cc2)cc1` [Example 47] displayed an IC50 of 131.

As to `N=C(N)c1ccc2nc(-c3ccc(Oc4ccc([N+](=O)[O-])c([N+](=O)[O-])c4)cc3)[nH]c2c1` [Example 57], the IC50 came out at 31.6.

Consider `COc1ccc(Oc2ccc(-c3nc4ccc(C(=N)N)cc4[nH]3)cc2)cc1` [Example 54], for which the IC50 stood at 17.7. In turn, `N=C(N)c1cc(N)c2[nH]c(-c3ccc(Oc4ccccc4)cc3)nc2c1` [Example 62] came in with an IC50 of 19. Same read-out and setting: the figure for `N=C(N)c1cc([N+](=O)[O-])c2[nH]c(-c3ccc(Oc4ccccc4)cc3)nc2c1` [Example 61] is 58; for `COc1cc(OC)cc(Oc2ccc(-c3nc4ccc(C(=N)N)cc4[nH]3)cc2)c1` [Example 55] it is 59.2; for `N=C(N)c1ccc2nc(-c3ccc(Oc4ccc(Cl)cc4[N+](=O)[O-])cc3)[nH]c2c1` [Example 49] it is 29.2.

Still in this assay, the particulars now being: Table 2, KinA/Spo0F phosphorylation, read-out: IC50.
Take `N=C(N)c1ccc2nc(-c3ccc(Oc4ccccc4)cc3)[nH]c2c1` [Example 48]: the IC50 stood at 42 µM.

The assay is the same for the next values; noted with them: Table 3, KinA/Spo0F phosphorylation, read-out: IC50.
Take `N=C(N)c1ccc2[nH]c(-c3cccc(Oc4ccc(Cl)c(Cl)c4)c3)nc2c1` [Example 67]: the IC50 stood at 32 µM. On the same count and under the same terms, the figure for `N=C(N)c1ccc2[nH]c(-c3cccc(Oc4ccccc4)c3)nc2c1` [Example 63] is 53 µM.

Turning to `COc1ccc(Oc2cccc(-c3nc4cc(C(=N)N)ccc4[nH]3)c2)cc1` [Example 70], the IC50 worked out at 69.2 µM.

Still in this assay, the particulars now being: Table 4, KinA/Spo0F phosphorylation, read-out: IC50.
Regarding `N=C(N)c1ccc2nc(-c3ccc4c(c3)Cc3ccccc3-4)[nH]c2c1` [Example 72], the IC50 amounted to 64.3 µM. The same measure, in the same setting: for `N=C(N)c1ccc2nc(-c3ccc4ccccc4c3)[nH]c2c1` [Example 74] the value was 120 µM.

Still in this assay, the particulars now being: Table 5, KinA/Spo0F phosphorylation, in µM.
`N=C(N)c1ccc(Oc2ccc(-c3nc4ccccc4[nH]3)cc2)cc1` [Example 79]: the IC50 came to 241.

Staying with this assay, now noted: Table 6, KinA/Spo0F phosphorylation, in µM.
Regarding `c1ccc(Oc2ccc(-c3nc4ccc(-c5nc6ccccc6[nH]5)cc4[nH]3)cc2)cc1` [Example 84], the IC50 was 32.3. `c1ccc(Oc2ccc(-c3nc4ccc(C5=NCCN5)cc4[nH]3)cc2)cc1` [Example 83] yielded an IC50 of 112.4.

`CC(C)(C)c1cc(-c2nc3ccc(N)cc3[nH]2)c(O)c(C(C)(C)C)c1` [Example 90] yielded an IC50 of 152.

The compound `CC(C)(C)c1cc(-c2nc3ccc(C4=NCCCN4)cc3[nH]2)c(O)c(C(C)(C)C)c1` [Example 86] came in with an IC50 of 32. The same measure, in the same setting: for `CC1(C)CN=C(c2ccc3nc(-c4cc(C(C)(C)C)cc(C(C)(C)C)c4O)[nH]c3c2)N1` [Example 88] the value was 12.

The assay is the same for the next values; noted with them: Table 6, KinA/Spo0F phosphorylation, read-out: IC50.
On to `CC(C)(C)c1cc(-c2nc3ccc(C(=O)O)cc3[nH]2)c(O)c(C(C)(C)C)c1` [Example 89], for which the IC50 was 86 µM.
